In article PMC11010885, “Functional Analysis and Tissue-Specific Expression of Calcitonin and CGRP with RAMP-Modulated Receptors CTR and CLR in Chickens” (Animals : an Open Access Journal from MDPI, 2024):

What was measured:
Format in all cases: cell-based
[1] = system: chicken CTR + RAMP3; assay: MAPK/ERK pGL4-SRE-luciferase reporter assay, CTR + RAMP3 in CHO cells; settings: 10^−12 M to 10^−6 M, 6 h, mean ± SEM, n = 3, read-out: EC50, MAPK/ERK signaling pathway
Procedure: (§1) Chinese hamster ovary (CHO) cells were cultured in Dulbecco’s modified Eagle’s medium (DMEM) supplemented with 10% (vol/vol) fetal bovine serum (HyClone, Logan, UT, USA), 100 U/mL penicillin G and 100 μg/mL streptomycin. The cells were maintained in a 90 mm culture dish (Nunc, Rochester, NY, USA) and incubated at 37 °C with 5% CO2. To investigate the signaling pathways associated with each receptor in CHO cells, three different reporter systems (pGL3-CRE-luciferase, pGL4-SRE-luciferase, and pGL3-NFAT-RE-luciferase) were utilized to monitor intracellular cAMP/PKA and MAPK/ERK signaling pathways and calcium mobilization of the activated receptors, respectively.
(§2) Prior to the transfection procedure, the cells were initially cultured in 6-well plates (Nunc, Rochester, NY, USA), maintaining a seeding density of approximately 300,000 cells per well. Upon achieving approximately 70% confluence, the cells underwent a co-transfection process. […] The fluorescence activity of the luciferase in each treatment group was measured using a multimode microplate reader (TriStar LB941, Berthold Technologies, Bad Wildbad, Germany). Finally, the fluorescence activity of each treatment group was expressed as a relative increase ratio compared to the control group.

[2] = system: chicken CTR in the absence or presence of RAMPs; assay: cAMP/PKA pGL3-CRE-luciferase reporter assay, CTR without and with RAMPs compared
Procedure: as §1
(§3) Prior to the transfection procedure, the cells were initially cultured in 6-well plates (Nunc, Rochester, NY, USA), maintaining a seeding density of approximately 300,000 cells per well. Upon achieving approximately 70% confluence, the cells underwent a co-transfection process. This procedure entailed the introduction of 700 ng of various luciferase reporter constructs (namely, pGL3-CRE-luciferase, pGL4-SRE-luciferase, or pGL3-NFAT-RE-luciferase) combined with 200 ng of a specific receptor plasmid (CTR or CLR) and 1000 ng of either RAMP1, RAMP2, RAMP3 expression plasmids, or alternatively, the empty pcDNA3.1 (+) vector. A volume of 5.7 μL of PEI MAX was used in 200 μL of buffer following the manufacturer’s protocol. After 24 h of incubation, the transfected CHO cells were subcultured in 96-well plates and passaged for an additional 24 h before peptide treatment. Then, the medium from the 96-well plates was removed, and the cells were treated with chicken CT/CGRP-containing medium (or untreated medium as a control) at concentrations ranging from 10^−12 M to 10^−6 M for 6 h. […] The fluorescence activity of the luciferase in each treatment group was measured using a multimode microplate reader (TriStar LB941, Berthold Technologies, Bad Wildbad, Germany). Finally, the fluorescence activity of each treatment group was expressed as a relative increase ratio compared to the control group.

[3] = system: chicken CTR + RAMP2; assay: Calcium pGL3-NFAT-RE-luciferase reporter assay, CTR + RAMP2 in CHO cells; settings: CTR + RAMP2, CHO cells, pGL3-NFAT-RE-luciferase, 10^−12 M to 10^−6 M, 6 h; mean ± SEM, n = 3; read-out: EC50, calcium signaling pathway
Procedure: as §1, §3

[4] = system: chicken CTR + RAMP1; assay: Calcium pGL3-NFAT-RE-luciferase reporter assay, CTR + RAMP1 in CHO cells; settings: 10^−12 M to 10^−6 M, 6 h, mean ± SEM, n = 3, read-out: EC50, calcium signaling pathway
Procedure: as §1, §2

[5] = system: chicken CLR; assay: Calcium pGL3-NFAT-RE-luciferase reporter assay, CLR + pcDNA in CHO cells; settings: 10^−12 M to 10^−6 M, 6 h, mean ± SEM, n = 3, read-out: EC50, calcium signaling pathway
Procedure: as §1, §2

[6] = system: chicken CLR + RAMP2; assay: Calcium pGL3-NFAT-RE-luciferase reporter assay, CLR + RAMP2 in CHO cells; settings: CLR + RAMP2, CHO cells, pGL3-NFAT-RE-luciferase, 10^−12 M to 10^−6 M, 6 h; mean ± SEM, n = 3; read-out: EC50, calcium signaling pathway
Procedure: as §1, §3

[7] = system: chicken CLR + RAMP2; assay: MAPK/ERK pGL4-SRE-luciferase reporter assay, CLR + RAMP2 in CHO cells; settings: 10^−12 M to 10^−6 M, 6 h, mean ± SEM, n = 3, read-out: EC50, MAPK/ERK signaling pathway
Procedure: as §1, §2

[8] = system: chicken CLR + RAMP3; assay: Western blot CREB phosphorylation, CLR + RAMP3 in CHO cells; settings: 10 nM, 10 min, n = 3
Procedure: To assess whether the activation of chicken CTR and CLR, along with the presence of RAMPs, can augment the phosphorylation levels of cAMP response element-binding protein (CREB), 200 ng of CTR or CLR expression plasmids were combined with 1000 ng of chicken RAMPs or an empty pcDNA3.1 (+) vector in a 100 μL buffer. The resulting mixture was then transfected into CHO cells in a 12-well plate (Nunc, Rochester, NY, USA) using 3.6 μL of PEI MAX transfection reagent. After a 24 h incubation period, the cells were exposed to chicken CT (10 nM) or CGRP (10 nM) for 10 min. Subsequently, the culture medium was removed, and the cells were lysed according to the manufacturer’s instructions. Western blot analysis was performed to quantify the levels of CREB and phosphorylated CREB (p-CREB). The optical densities were analyzed and normalized using the software, ImageJ 1.52a (National Institutes of Health, Bethesda, MD, USA). The relative expression of p-CREB/CREB was determined by calculating the ratio of the optical density to that of the control without peptide treatment (0 min).

[9] = system: chicken CTR + RAMP1; assay: cAMP/PKA pGL3-CRE-luciferase reporter assay, CTR + RAMP1 in CHO cells; settings: 10^−12 M to 10^−6 M, 6 h, mean ± SEM, n = 3, read-out: EC50, cAMP/PKA signaling pathway
Procedure: as §1, §2

[10] = system: chicken CLR + RAMP3; assay: cAMP/PKA pGL3-CRE-luciferase reporter assay, CLR + RAMP3 in CHO cells; settings: 10^−12 M to 10^−6 M, 6 h, mean ± SEM, n = 3, read-out: EC50, cAMP/PKA signaling pathway
Procedure: as §1, §2

[11] = system: chicken CTR + RAMP2; assay: cAMP/PKA pGL3-CRE-luciferase reporter assay, CTR + RAMP2 in CHO cells; settings: 10^−12 M to 10^−6 M, 6 h, mean ± SEM, n = 3, read-out: EC50, cAMP/PKA signaling pathway
Procedure: as §1, §2

[12] = system: chicken CTR; assay: cAMP/PKA pGL3-CRE-luciferase reporter assay, CTR + pcDNA in CHO cells
Procedure: as §1
Prior to the transfection procedure, the cells were initially cultured in 6-well plates (Nunc, Rochester, NY, USA), maintaining a seeding density of approximately 300,000 cells per well. Upon achieving approximately 70% confluence, the cells underwent a co-transfection process. This procedure entailed the introduction of 700 ng of various luciferase reporter constructs (namely, pGL3-CRE-luciferase, pGL4-SRE-luciferase, or pGL3-NFAT-RE-luciferase) combined with 200 ng of a specific receptor plasmid (CTR or CLR) and 1000 ng of either RAMP1, RAMP2, RAMP3 expression plasmids, or alternatively, the empty pcDNA3.1 (+) vector. A volume of 5.7 μL of PEI MAX was used in 200 μL of buffer following the manufacturer’s protocol. After 24 h of incubation, the transfected CHO cells were subcultured in 96-well plates and passaged for an additional 24 h before peptide treatment. Then, the medium from the 96-well plates was removed, and the cells were treated with chicken CT/CGRP-containing medium (or untreated medium as a control) at concentrations ranging from 10^−12 M to 10^−6 M for 6 h. Subsequently, the cells were harvested for luciferase assays by lysing them in 1 × passive lysis buffer. To measure the luciferase activity of the cell lysate, 40 μL of luciferase assay reagent (Promega, Madison, WI, USA) was mixed with the cell lysate following the manufacturer’s instructions. The fluorescence activity of the luciferase in each treatment group was measured using a multimode microplate reader (TriStar LB941, Berthold Technologies, Bad Wildbad, Germany). Finally, the fluorescence activity of each treatment group was expressed as a relative increase ratio compared to the control group.

[13] = system: chicken CTR; assay: Calcium pGL3-NFAT-RE-luciferase reporter assay, CTR + pcDNA in CHO cells; settings: 10^−12 M to 10^−6 M, 6 h, mean ± SEM, n = 3, read-out: EC50, calcium signaling pathway
Procedure: as §1, §2

[14] = system: chicken CLR + RAMP1; assay: cAMP/PKA pGL3-CRE-luciferase reporter assay, CLR + RAMP1 in CHO cells
Procedure: as §1, §3

With calcitonin gene-related peptide [CGRP] the EC50 [1] was 0.67 ± 0.24 nM, the “effect of RAMP co-expression on sensitivity of CTR” value ([2]; CHO cells, pGL3-CRE-luciferase) was “co-expression of RAMP1 or RAMP3 significantly increased the sensitivity of CTR to CGRP” and the “rank order of receptor sensitivity” value ([2]; CTR without/with RAMPs) was “CTR + RAMP1 ≈ CTR + RAMP3 > CTR + RAMP2 ≈ CTR”. For the same substance, the EC50 [3] was over 100 nM, the EC50 [4] was over 100 nM and the EC50 [5] was over 100 nM. The EC50 [6] was over 100 nM, the EC50 [7] was 90.9 ± 17.4 nM and the “CREB phosphorylation (p-CREB/CREB vs. control, 0 min)” value [8] was “significantly enhanced the CREB phosphorylation”. It also gave an EC50 [9] of 0.1 ± 0.01 nM, an EC50 [10] of 1.84 ± 0.73 nM and an EC50 [11] of 1.63 ± 0.19 nM. For the same substance, the EC50 ([12]; CTR + pcDNA, CHO cells, pGL3-CRE-luciferase, 10^−12 M to 10^−6 M, 6 h, mean ± SEM, n = 3, read-out: EC50, cAMP/PKA signaling pathway) was 2.35 ± 0.63 nM, the “activation (cAMP production), in words” value ([12]; independent CTR) was “preferentially activates CTR” and the EC50 [13] was over 100 nM. The EC50 ([14]; CLR + RAMP1, CHO cells, pGL3-CRE-luciferase, 10^−12 M to 10^−6 M, 6 h, mean ± SEM, n = 3, read-out: EC50, cAMP/PKA signaling pathway) was 0.26 ± 0.03 nM and the “EC50 of CGRP relative to CT” value ([14]; CLR in the presence of RAMP1) was “approximately tenfold lower than CT”.
